Measurements from US20090317741A1, “COMPOUND, ACID GENERATOR, RESIST COMPOSITION AND METHOD OF FORMING RESIST PATTERN” (Tokyo Ohka Kogyo Co., Ltd., priority 2006, published 2009).

Procedure: The solution of propylene glycol monomethyl ether acetate (PGMEA), propylene glycol monomethyl ether (PGME), or ethyl lactate (EL) with each compound described above was prepared, while changing the concentration. After the preparation, each solution was stirred, and then the concentration in which each acid generator was completely dissolved was measured.

Question: For `CC(C)(C)c1ccc(-[s+]2c3ccccc3c3ccccc32)cc1` [Compound (b1-21)], which “Solubility in EL” value is on record?
Answer: Its value is 7 % by weight.

Question: What about the “Solubility in PGME” value of the same compound?
Answer: The value was >20 % by weight.

Question: And the “Solubility in PGMEA” value?
Answer: The value was 5 % by weight.

Question: Which “Solubility in EL” value does the source give for `CCC(C)(C)c1ccc(-[s+]2c3ccccc3c3ccccc32)cc1` [Compound (b1-24)] here?
Answer: Its value is >20 % by weight.

Question: What about the “Solubility in PGME” value of the same compound?
Answer: Its value is >20 % by weight.

Question: And the “Solubility in PGMEA” value?
Answer: Its value is 15 % by weight.
